# According to patent US8895535B2, “Pyrrolidinones as MetAP-2 inhibitors” (Merck Patent GmbH, priority 2010, dated 2014):
# Biological target: MetAP-2 (Homo sapiens, UniProt P50579)
# Assay: MetAP-2 activity measurement (coupled enzymatic reactions, substrate Met-Arg-Ser)
# Type: biochemical
# Conditions: Inhibition of MetAP-2; read-out: IC50 enzyme
# Experimental: MetAP-2 Activity Measurement
# The MetAP-2 activity is determined by coupling enzymatic reactions. The tripeptide Met-Arg-Ser (MAS) is employed as substrate. The methionine liberated is firstly converted into Metox and H2O2 by L-aminooxidase (AAO).
# MetAP-2 activity can be recorded continuously as kinetics. The reaction scheme illustrates that one mol of dianisidineox is formed per mol of methionene. The MetAP-2 enzyme activity can therefore be calculated directly as Δ absorption per time unit. […] of the MetAP-2 activity (mol of Met/time unit) is possible with the aid of the dianisidineox extinction coefficient.
# The change in extinction per time unit is depicted graphically and a slope calculation is carried out in the visually linear region of the reaction.
# Chain of MetAP-2 (P50579 whole entry, species assumed): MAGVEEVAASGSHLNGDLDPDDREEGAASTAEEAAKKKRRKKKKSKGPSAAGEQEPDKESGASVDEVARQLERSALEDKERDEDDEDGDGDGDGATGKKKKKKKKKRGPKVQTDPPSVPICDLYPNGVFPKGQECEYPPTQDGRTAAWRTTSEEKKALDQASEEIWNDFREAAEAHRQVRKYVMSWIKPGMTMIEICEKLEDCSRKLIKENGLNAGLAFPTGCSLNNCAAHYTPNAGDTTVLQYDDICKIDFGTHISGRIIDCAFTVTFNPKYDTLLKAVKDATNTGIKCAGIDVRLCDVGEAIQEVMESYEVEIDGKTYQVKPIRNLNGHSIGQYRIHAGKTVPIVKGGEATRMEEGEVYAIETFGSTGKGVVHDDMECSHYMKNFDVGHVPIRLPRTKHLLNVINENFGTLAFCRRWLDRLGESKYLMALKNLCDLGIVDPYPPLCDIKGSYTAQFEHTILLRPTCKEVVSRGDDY
row,Compound,IC50
1,O=C(NCCc1cccs1)[C@@]1(O)CCN(c2ccc3ccccc3c2)C1=O [A55],10 to 1000 nM
2,O=C(NCc1cc(C(F)(F)F)cc(C(F)(F)F)c1)[C@@]1(O)CCN(c2ccccc2)C1=O [A165],> 10000 nM
3,CCCCNC(=O)[C@@]1(O)CCN(c2ccccc2)C1=O [A310],10 to 1000 nM
4,Cc1nc(CCNC(=O)[C@@]2(O)CCN(c3ccccc3)C2=O)cs1 [A16],1000 to 10000 nM
5,O=C(NCCc1cccs1)[C@]1(O)CCN(c2ccc(Br)cc2)C1=O [A77],1000 to 10000 nM
6,O=C(NCc1ccc(C(F)(F)F)cc1)[C@@]1(O)CCN(c2ccccc2)C1=O [A333],> 10000 nM
7,CCc1nnn(CCNC(=O)[C@@]2(O)CCN(c3ccccc3)C2=O)n1 [A3],1000 to 10000 nM
8,CCN(Cc1ccccc1)C(=O)[C@@]1(O)CCN(c2ccccc2)C1=O [A303],> 10000 nM
9,O=C(N1CCOCC1)[C@@]1(O)CCN(c2ccccc2)C1=O [A300],> 10000 nM
10,O=C(NCc1cccnc1)[C@@]1(O)CCN(c2ccccc2)C1=O [A24],1000 to 10000 nM
11,O=C(NCc1ccco1)C1(O)CCN(c2ccccc2)C1=O (centres unmarked) [A64],1000 to 10000 nM

# Now from value to compound:
row,IC50,Compound
1,10 to 1000 nM,O=C(NCc1cccc(Br)c1)[C@@]1(O)CCN(c2cccc3ccccc23)C1=O [A71]
2,> 10000 nM,O=C(NCc1cccc(Br)c1)[C@]1(O)CCN(c2ccccc2)C1=O [A79]
3,1000 to 10000 nM,O=C(NCc1cccc(Cl)c1F)[C@]1(O)CCN(c2ccc(F)cc2)C1=O [A67]
4,10 to 1000 nM,CNC(=O)Cn1ccc2cc(N3CC[C@](O)(C(=O)NCc4cc(F)cc(Cl)c4)C3=O)ccc21 [A287]
5,10 to 1000 nM,Cc1nnc(-c2ccc(N3CC[C@](O)(C(=O)NCc4cc(F)cc(Cl)c4)C3=O)cc2)o1 [A267]
6,10 to 1000 nM,O=C(NCCc1cccs1)[C@@]1(O)CCN(c2ccc(F)c(Cl)c2)C1=O [A51]
7,10 to 1000 nM,CCn1cc(N2CC[C@](O)(C(=O)NCc3cc(F)cc(F)c3)C2=O)cn1 [A211]
8,1000 to 10000 nM,O=C(NCc1cccc(OC(F)F)c1)[C@@]1(O)CCN(c2ccccc2)C1=O [A6]
9,10 to 1000 nM,Cc1ccc(N2CC[C@](O)(C(=O)NCc3cc(F)cc(Cl)c3)C2=O)cn1 [A181]
